The values below come from patent publication US8946224B2, “Substituted [1,2,4]triazolo[4,3-A]pyrazines for medicaments and pharmaceutical compositions” (Redx Pharma Limited, priority 2010, dated 2015).

The test system of assay [1] is HepG2 cells. The assay is described as follows: HepG2 cytotoxicity, MTT, 72 hours (Examples 93-95). The class given is cell-based. The conditions noted are these: for MEC (minimum effective concentration that significantly crosses vehicle threshold) / AC50: Cell Loss; for AC50: Homo sapiens, HepG2, read-out: AC50 (concentration at which 50% maximum effect is observed). As to the method: Methodology for Examples 93-95
A number of analogues were tested for their ability to kill cancer cells.
HepG2 cells were plated on 96-well tissue culture treated polystyrene plates at 0.5×10^4 cells in 100 μL per well. After 24 hr the cells are dosed with test compound at a range of concentrations and incubated for 72 hours. One hour prior to the end of the incubation period, the cells are loaded with MU [yellow; 3-(4,5-dimethyl-2-thiazolyl)-2,5-diphenyl-2H-tetrazolium bromide], the plates are dried and re-solubilised using DMSO. The plates are then scanned using SpectraFluor Plus (TECAN).
Cytotoxicity was assessed using MU. The assay provides a measurement of mitochondrial dehydrogenase activity and cell loss.
A decrease can indicate a loss of cells indicating toxicity due to necrosis, apoptosis or a reduction in cellular proliferation.
A decrease can also indicate an effect on mitochondrial function as mitochondrial dehydrogenasesreduce the MTT [yellow; 3-(4,5-dimethyl-2-thiazolyl)-2,5-diphenyl-2H-tetrazolium bromide] to formazan. The formazan is detected in this assay.
The cells were dosed at concentrations of 0.04, 0.1, 0.4, 1, 4, 10, 40 and 100 μM. The assay was repeated three times at each concentration.
AC50=The concentration at which 50% maximum effect is observed for each cell health parameter.
The cells were dosed at concentrations of 0.02, 0.05, 0.2, 0.5, 2, 5, 20 and 50 μM. The assay was repeated three times at each concentration.
The cells were dosed at concentrations of 0.04, 0.1, 0.4, 1, 4, 10, 40 and 100 μM for bexarotene and the compound of formula 102 when Z is CH═NOH (compound 13a). The cells were dosed at concentrations of 0.02, 0.05, 0.2, 0.5, 2, 5, 20 and 50 μM for the compound of formula 102 when Z is CH═NOMe (compound 13b). The assay was repeated three times at each concentration.

Assay [2] deals with PathHunter NHRPro cell lines. Description: PathHunter NHRPro cell assay, antagonist format (Examples 90-92). Type of assay: cell-based. To be noted: for Emax: read-out: Max Response; for IC50: read-out: RC50 (IC50). The procedure:
Methodology for Examples 90-92 Cell Handling
PathHunter NHRPro cell lines were expanded from freezer stocks in T25 flasks according to standard procedures and maintained in selective growth media prior to assay.
Once it was established that the cells were healthy and growing normally, cells were passaged from flasks using cell dissociation reagent and seeded into white walled clear bottom 384-well microplates for compound profiling.
For profiling, cells were seeded at a density of 10000 cells per well in a total volume of 20 μL and were allowed to adhere and recover overnight prior to compound addition. Media contained charcoal-dextran filtered serum to reduce the level of hormones present.
Agonist dose curves were performed the morning of profiling to determine the EC80 value for the following antagonist testing with compounds. 5 μL of 5× agonist was added to each well with an equal concentration of vehicle present.
EC80 agonist concentration was determined directly from agonist dose curve.
For antagonist determination, cells were pre-incubated with antagonist followed by agonist challenge at the EC80 concentration.
5 μL of 5× compound added to cells and incubated at 37° C. for 30 minutes.
5 μL of 6× EC80 agonist added to cells and incubated at 37° C. for 90 minutes (180 minutes for EDG2 and EDG8).
After appropriate compound incubation, assay signal was generated through a single addition of 15 μL (50% v/v) of PathHunter Detection reagent cocktail for agonist and antagonist assays respectively followed by one hour incubation at room temperature.
Microplates were read following signal generation with a PerkinElmer Envision™ instrument for chemiluminescent signal detection.
Dose curves in the presence and absence of compound were plotted using GraphPad Prism or Activity Base.

Assay [3] addresses T1, recombinant human MAO-B (Homo sapiens, UniProt P27338).
T1 sequence (P27338 1-520): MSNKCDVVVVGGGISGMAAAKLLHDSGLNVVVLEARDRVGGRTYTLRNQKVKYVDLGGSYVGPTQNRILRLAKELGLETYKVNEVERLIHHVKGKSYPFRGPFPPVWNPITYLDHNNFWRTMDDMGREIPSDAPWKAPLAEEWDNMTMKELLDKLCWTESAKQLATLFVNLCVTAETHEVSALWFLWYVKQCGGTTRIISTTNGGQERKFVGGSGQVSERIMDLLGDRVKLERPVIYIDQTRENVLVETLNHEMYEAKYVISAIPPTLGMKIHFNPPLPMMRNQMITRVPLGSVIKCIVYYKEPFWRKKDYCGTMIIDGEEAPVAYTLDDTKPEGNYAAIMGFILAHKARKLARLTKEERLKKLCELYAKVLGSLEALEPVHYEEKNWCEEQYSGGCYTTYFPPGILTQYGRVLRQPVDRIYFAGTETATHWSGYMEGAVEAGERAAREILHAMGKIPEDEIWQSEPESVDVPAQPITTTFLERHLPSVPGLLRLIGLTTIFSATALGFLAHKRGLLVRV
The assay is described as follows: MAO-B inhibition, kynuramine substrate, LC-MS/MS of 4-hydroxyquinoline (Example 99). Type of assay: biochemical. To be noted: for remaining activity at 0.001 µM: 0.001 μM test compound; for remaining activity at 0.001 µM / remaining activity at 0.01 µM / remaining activity at 0.04 µM / remaining activity at 0.1 µM / remaining activity at 0.4 µM / remaining activity at 1 µM / remaining activity at 10 µM: kynuramine 25 μM, read-out: Mean % Activity Remaining (n = 2); for remaining activity at 0.01 µM: 0.010 μM test compound; for remaining activity at 0.04 µM: 0.04 μM test compound; for remaining activity at 0.1 µM: 0.1 μM test compound; for remaining activity at 0.4 µM: 0.4 μM test compound; for remaining activity at 1 µM: 1 μM test compound; for remaining activity at 10 µM: 10 μM test compound; for IC50: MAO-B, substrate kynuramine 25 μM. As to the method: Eight test compound concentrations (0.001-10 μM; final DMSO concentration 0.5%) were incubated with recombinant human MAO-B (2 μg/mL) in the presence of the probe substrate kynuramine (25 μM) for 25 min at 37° C. Each test compound concentration was assessed in duplicate. […] The reactions were terminated by addition of methanol containing internal standard for analytical quantification. The quenched samples were incubated at 4° C. for 10 min and centrifuged at 4° C. for 10 min. The supernatant was removed and analysed by LC-MS/MS for the probe metabolite 4-hydroxyquinoline. Generic Cyprotex LC-MS/MS analytical conditions were used.
A decrease in the formation of the metabolite compared to vehicle control was used to calculate an IC50 value.

[4] abbreviates: Example 95, dosed 0.04-100 μM (compound 13b 0.02-50 μM).

Where two headings read alike, the source gives them in different places.

The IC50 is the point on the concentration scale where inhibition reaches its midpoint. What is called remaining activity is the signal under treatment as a percentage of the control signal.

As to `Cn1c(CCCC(=O)O)nc2cc(N(CCCl)CCCl)ccc21` [Bendamustine, bendamustine, reference compound], in assay [1] (Example 93, dosed 0.04-100 μM), the “MEC (minimum effective concentration that significantly crosses vehicle threshold)” value came to 40 µM and the AC50 was found to be 92300 nM.
As to `C=C(c1ccc(C(=O)O)cc1)c1cc2c(cc1C)C(C)(C)CCC2(C)C` [Bexarotene, bexarotene, reference compound], in assay [1] (setting [4]), the “MEC (minimum effective concentration that significantly crosses vehicle threshold)” value came out at 40 µM and the AC50 is 44300 nM.
Turning to `CCOc1nc2cccc(C(=O)O)c2n1Cc1ccc(-c2ccccc2-c2nnn[nH]2)cc1` [Candesartan], in assay [2] (AGTR1, Arrestin), the Emax was 101% and the IC50 came out at 9.87 nM.
Regarding `CCCCc1nc(Cl)c(C=NO)n1Cc1ccc(-c2ccccc2-c2nn[nH]n2)cc1` [Compound 4a, 1-((2′-(2H-Tetrazol-5-yl)-[1,1′-biphenyl]-4-yl)methyl)-2-butyl-4-chloro-1H-imidazole-5-carbaldehyde oxime], in assay [2] (AGTR1, Arrestin), the Emax was 96.7% and the IC50 stood at 109 nM.
For `CCCCc1nc(Cl)c(C=NOC)n1Cc1ccc(-c2ccccc2-c2nn[nH]n2)cc1` [Compound 4b, 1-((2′-(2H-Tetrazol-5-yl)-[1′,1′-biphenyl]-4-yl)methyl)-2-butyl-4-chloro-1H-imidazole-5-carbaldehyde O-methyl oxime], in that order: 97.4% and 248 nM.
`Cn1c(CCCC=O)nc2cc(N(CCCl)CCCl)ccc21` [Compound 6a, 4-(5-(Bis(2-chloroethyl)amino)-1-methyl-1H-benzo[d]imidazol-2-yl)butanal]: in assay [1] (Example 93, dosed 0.04-100 μM), the “MEC (minimum effective concentration that significantly crosses vehicle threshold)” value stood at 4 µM and the AC50 came to 5830 nM. Besides, the “Activity in HepG2 cell assay (in words)” value in assay [1] (Example 93, 0.04-100 μM, 72 hours) is listed as “exhibited a higher activity than compound 6b”.
Consider `Cn1c(CCCC=NO)nc2cc(N(CCCl)CCCl)ccc21` [Compound 6b, 4-(5-(Bis(2-chloroethyl)amino)-1-methyl-1H-benzo[d]imidazol-2-yl)butanal oxime], for which, in assay [1] (Example 93, dosed 0.04-100 μM), the “MEC (minimum effective concentration that significantly crosses vehicle threshold)” value stood at 10 µM and the AC50 worked out at 17300 nM.
Turning to `CCOc1nc2cccc(C=NO)c2n1Cc1ccc(-c2ccccc2-c2nnn[nH]2)cc1` [Compound 10a, 1-((2′-(1H-Tetrazol-5-yl)-[1,1′-biphenyl]-4-yl)methyl)-2-ethoxy-1H-benzo[d]imidazole-7-carbaldehyde oxime], in assay [2] (AGTR1, Arrestin), the Emax came to 101% and the IC50 came to 46.5 nM.
The like results for `CCOc1nc2cccc(C=NOC)c2n1Cc1ccc(-c2ccccc2-c2nnn[nH]2)cc1` [Compound 10b, 1-((2′-(1H-tetrazol-5-yl)-[1,1′-biphenyl]-4-yl)methyl)-2-ethoxy-1H-benzo[d]imidazole-7-carbaldehyde O-methyl oxime] were, in that order, 98.8% and 48.8 nM.
For the molecule `Cc1ccc(F)cc1C(=O)Nc1ccc(CN2Cc3cccn3Cc3ccccc32)c(Cl)c1` [Compound 15a, N-(4-((5H-Benzo[e]pyrrolo[1,2-a][1,4]diazepin-10(11H)-yl)methyl)-3-chlorophenyl)-5-fluoro-2-methylbenzamide], in assay [2] (AVPR2, Arrestin), the Emax is 108% and the IC50 was 3.8 nM.
The like results for `Cc1ccc(F)cc1CNc1ccc(C(=O)N2Cc3cccn3Cc3ccccc32)c(Cl)c1` [Compound 15b, (5H-Benzo[e]pyrrolo[1,2-a][1,4]diazepin-10(11H)-yl)(2-chloro-4-(5-fluoro-2-methylbenzylamino)phenyl)methanone] were, in that order, 79.4% and 2370 nM.
Consider `C[C@@H](C=NO)NCc1ccc(OCc2cccc(F)c2)cc1` [Compound 31a, (S)-2-(4-(3-Fluorobenzyloxy)benzylamino)propanal oxime], for which, in assay [3], the remaining activity at 0.001 µM was found to be 90%, the remaining activity at 0.01 µM came out at 84%, the remaining activity at 0.04 µM was determined as 73% and the remaining activity at 0.1 µM is 65%. Also, in assay [3], the remaining activity at 0.4 µM came out at 50%, the remaining activity at 1 µM was 26%, the remaining activity at 10 µM stood at 4% and the IC50 is 246 nM.
Consider `CON=C[C@H](C)NCc1ccc(OCc2cccc(F)c2)cc1` [Compound 31b, (S)-2-(4-(3-Fluorobenzyloxy)benzylamino)propanal O-methyl oxime], for which, in assay [3], the remaining activity at 0.001 µM turned out to be 90%, the remaining activity at 0.01 µM turned out to be 75%, the remaining activity at 0.04 µM came out at 57% and the remaining activity at 0.1 µM was determined as 34%. In assay [3], the remaining activity at 0.4 µM was found to be 15%, the remaining activity at 1 µM was found to be 6%, the remaining activity at 10 µM came out at 1% and the IC50 is 46 nM.
On to `Cc1ccc(F)cc1C(=O)Nc1ccc(C(=O)N2Cc3cccn3Cc3ccccc32)c(Cl)c1` [Lixivaptan, lixivaptan, reference compound], for which, in assay [2] (AVPR2, Arrestin), the Emax came out at 102% and the IC50 came out at 1.28 nM.
Take `CCCCc1nc(Cl)c(CO)n1Cc1ccc(-c2ccccc2-c2nn[nH]n2)cc1` [Losartan]: in assay [2] (AGTR1, Arrestin), the Emax is 98.6% and the IC50 came out at 8.21 nM.
As for `C[C@H](NCc1ccc(OCc2cccc(F)c2)cc1)C(N)=O` [Safinamide, safinamide, reference compound], in assay [3], the remaining activity at 0.001 µM is 101%, the remaining activity at 0.01 µM worked out at 95%, the remaining activity at 0.04 µM is 79% and the remaining activity at 0.1 µM turned out to be 62%. Moreover, in assay [3], the remaining activity at 0.4 µM came out at 31%, the remaining activity at 1 µM was found to be 13% and the remaining activity at 10 µM was determined as 2%.
As to `CCCCC(=O)N(Cc1ccc(-c2ccccc2-c2nnn[nH]2)cc1)[C@H](C(=O)O)C(C)C` [Valsartan], in assay [2] (AGTR1, Arrestin), the Emax turned out to be 106% and the IC50 came to 1.7 nM.
